Molecular target: T1, wild-type V1-ATPase (Enterococcus hirae, UniProt Q08636+Q08637)
T1 construct: gene ntpA
Details: MgCl2; pH 6.5, 25 °C; ATP-regenerating system

## Nc1ncnc2c1ncn2[C@@H]1O[C@H](COP(=O)(O)OP(=O)(O)OP(=O)(O)O)[C@@H](O)[C@H]1O [ATP]
  coupled ATPase assay (NADH, pyruvate kinase / lactate dehydrogenase): We also measured ATPase activity of the wild-type and designed V1

Reference: paper PMC10624635, “Design of allosteric sites into rotary motor V1-ATPase by restoring lost function of pseudo-active sites” (Nature Chemistry, 2023)
